We go through three compounds from patent publication EP3046573B1, “AMYLIN ANALOGUES” (Zealand Pharma A/S, priority 2013, dated 2015).

Data set [1] has as its target T1, human calcitonin receptor (hCTR2) (Homo sapiens, UniProt P30988).
T1 construct: expressed in transfected cells
T1 sequence (P30988 25-474): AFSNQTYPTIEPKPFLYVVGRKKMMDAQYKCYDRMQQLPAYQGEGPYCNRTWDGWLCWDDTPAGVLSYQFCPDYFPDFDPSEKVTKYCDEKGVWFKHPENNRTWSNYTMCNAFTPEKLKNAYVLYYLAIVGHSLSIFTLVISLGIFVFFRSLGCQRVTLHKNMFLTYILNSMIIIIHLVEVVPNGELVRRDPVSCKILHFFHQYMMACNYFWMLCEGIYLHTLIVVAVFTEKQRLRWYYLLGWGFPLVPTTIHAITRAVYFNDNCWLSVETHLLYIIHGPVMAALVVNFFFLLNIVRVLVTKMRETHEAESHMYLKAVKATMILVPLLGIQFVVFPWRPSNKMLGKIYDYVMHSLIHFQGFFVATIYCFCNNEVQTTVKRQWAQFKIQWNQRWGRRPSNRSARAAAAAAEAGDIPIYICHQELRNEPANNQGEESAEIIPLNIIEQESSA
Nature of the data set: hCTR2 assay: induction of cAMP (AlphaScreen cAMP Assay kit) in COS7 cells expressing hCTR2. The data set is classed as cell-based. The gist of the method:
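Cells were seeded one day ahead, washed, then exposed to rising peptide concentrations for 15 min at 37° C in the presence of 100 µM IBMX. After lysis for 10 min at room temperature, cAMP was quantified by AlphaScreen and EC50 values derived by 4PL fitting.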
In general terms: Bead proximity is the source of the signal in Alpha formats.

Data set [2] is described as follows: Solubility assessment (turbidity absorbance at 325 nm). The class given is physicochemical. The following applies: stock 2 mg/ml diluted 1:1, ambient temperature (typically 25°C), n=1; for Solubility, Acetate buffer pH 4: 100 mM acetate buffer pH 4.0; for Solubility, Acetate buffer pH 5: 100 mM acetate buffer pH 5.0; for Solubility, Histidine buffer pH 6: 100 mM histidine buffer pH 6.0; for Solubility, Histidine buffer pH 7: 100 mM histidine buffer pH 7.0; for Solubility, Phosphate buffer pH 6: 100 mM phosphate buffer pH 6.0; for Solubility, Phosphate buffer pH 7: 100 mM phosphate buffer pH 7.0; for Solubility, Phosphate buffer pH 7.5: 100 mM phosphate buffer pH7.5. Put shortly:
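Turbidity read as absorbance at 325 nm (also 280 nm), single samples at ambient temperature (typically 25°C); ≤ 0.02 units counts as ≥ 1 mg/ml soluble. Samples made by 1:1 dilution of a 2 mg/ml acidic stock into 100 mM acetate, histidine or phosphate buffers, pH 4.0–7.5.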

Where two headings read alike, the source gives them in different places. Numbered stars: 1 amine (or outer) side, 2 acyl side, 3 side chain; on linkers, the order of the positions; unused ones are H or OH. Bridge positions count the residues as written; N and C are the ends. Square brackets hold non-standard residues; d marks the D form. Peptide text beside a SMILES is read from it. * marks the point of attachment. C20 diacid = O=C(O)CCCCCCCCCCCCCCCCCCC(=O)*; γGlu = O=C(O)[C@H](CCC(=O)[*:2])N[*:1]; NMeI = CC[C@H](C)[C@H](NC)C(=O)O; Sar = CNCC(=O)O

In the case of `CC[C@H](C)[C@@H](C(=O)N[C@@H](CC(C)C)C(=O)N[C@@H](CO)C(=O)N[C@@H](CO)C(=O)N[C@H](C(=O)N[C@@H](CC(N)=O)C(=O)N[C@H](C(=O)NCC(=O)N[C@@H](CO)C(=O)N[C@@H](CC(N)=O)C(=O)N[C@H](C(=O)N1CCC[C@H]1C(N)=O)[C@@H](C)O)C(C)C)[C@@H](C)O)N(C)C(=O)CN(C)C(=O)[C@H](Cc1ccccc1)NC(=O)[C@H](CC(N)=O)NC(=O)[C@H](CO)NC(=O)[C@H](CO)NC(=O)[C@H](Cc1c[nH]cn1)NC(=O)[C@H](Cc1c[nH]cn1)NC(=O)[C@H](CC(C)C)NC(=O)[C@H](Cc1ccccc1)NC(=O)[C@H](CCC(=O)O)NC(=O)[C@H](C)NC(=O)[C@H](CC(C)C)NC(=O)[C@H](CCCNC(=N)N)NC(=O)[C@H](CCC(N)=O)NC(=O)[C@@H](NC(=O)[C@H](C)NC(=O)[C@@H]1CSSC[C@H](NC(=O)[C@H](CCCNC(=N)N)NC(=O)CC[C@H](NC(=O)CCCCCCCCCCCCCCCCCCC(=O)O)C(=O)O)C(=O)N[C@@H](CC(N)=O)C(=O)N[C@@H]([C@@H](C)O)C(=O)N[C@@H](C)C(=O)N[C@@H]([C@@H](C)O)C(=O)N1)[C@@H](C)O` [Compound 38, [19CD]-isoGlu-RC()NTATC()ATQRLAEFLHHSSNF-Gly(Me)-Ile(Me)-LSSTNVGSNTP-NH2] ({C20 diacid-γGlu}-RCNTATCATQRLAEFLHHSSNF[Sar][NMeI]LSSTNVGSNTP-NH2; disulfide 2-7), the EC50 in data set [1] came out at 0.16 nM. Further, in data set [2], the “Solubility, Acetate buffer pH 4” value is on record as “II (II indicates solubility ≤ 1 mg/ml)”; the “Solubility, Acetate buffer pH 5” value was “II (II indicates solubility ≤ 1 mg/ml)”; the “Solubility, Histidine buffer pH 6” value is given as “II (II indicates solubility ≤ 1 mg/ml)”; the “Solubility, Histidine buffer pH 7” value is “II (II indicates solubility ≤ 1 mg/ml)”. For the same compound, in data set [2], the “Solubility, Phosphate buffer pH 6” value is reported as “II (II indicates solubility ≤ 1 mg/ml)”; the “Solubility, Phosphate buffer pH 7” value was “II (II indicates solubility ≤ 1 mg/ml)”; the “Solubility, Phosphate buffer pH 7.5” value is given as “II (II indicates solubility ≤ 1 mg/ml)”.

Turning to `CC[C@H](C)[C@@H](C(=O)N[C@@H](CC(C)C)C(=O)N[C@@H](CO)C(=O)N[C@@H](CO)C(=O)N[C@H](C(=O)N[C@@H](CC(N)=O)C(=O)N[C@H](C(=O)NCC(=O)N[C@@H](CO)C(=O)N[C@@H](CC(N)=O)C(=O)N[C@H](C(=O)N1CCC[C@H]1C(N)=O)[C@@H](C)O)C(C)C)[C@@H](C)O)N(C)C(=O)[C@H](C)NC(=O)CN(C)C(=O)[C@H](Cc1ccccc1)NC(=O)[C@H](CC(N)=O)NC(=O)[C@H](CC(N)=O)NC(=O)[C@H](CO)NC(=O)[C@H](CO)NC(=O)[C@H](Cc1c[nH]cn1)NC(=O)[C@H](CC(C)C)NC(=O)[C@H](Cc1ccccc1)NC(=O)[C@H](CCC(=O)O)NC(=O)[C@H](C)NC(=O)[C@H](CC(C)C)NC(=O)[C@H](CCCNC(=N)N)NC(=O)[C@H](CCC(N)=O)NC(=O)[C@@H](NC(=O)[C@H](C)NC(=O)[C@@H]1CSSC[C@H](NC(=O)[C@H](CCCNC(=N)N)NC(=O)CC[C@H](NC(=O)CCCCCCCCCCCCCCCCCCC(=O)O)C(=O)O)C(=O)N[C@@H](CC(N)=O)C(=O)N[C@@H]([C@@H](C)O)C(=O)N[C@@H](C)C(=O)N[C@@H]([C@@H](C)O)C(=O)N1)[C@@H](C)O` [Compound 39, [19CD]-isoGlu-RC()NTATC()ATQRLAEFLHSSNNF-Gly(Me)-A-Ile(Me)-LSSTNVGSNTP-NH2] ({C20 diacid-γGlu}-RCNTATCATQRLAEFLHSSNNF[Sar]A[NMeI]LSSTNVGSNTP-NH2; disulfide 2-7), the EC50 in data set [1] turned out to be 0.19 nM. Besides, in data set [2], the “Solubility, Acetate buffer pH 4” value was “SS (SS indicates solubility ≥ 1mg/ml)”; the “Solubility, Acetate buffer pH 5” value is “SS (SS indicates solubility ≥ 1mg/ml)”; the “Solubility, Histidine buffer pH 6” value was “SS (SS indicates solubility ≥ 1mg/ml)”; the “Solubility, Histidine buffer pH 7” value was “SS (SS indicates solubility ≥ 1mg/ml)”. In data set [2], the “Solubility, Phosphate buffer pH 6” value is “SS (SS indicates solubility ≥ 1mg/ml)”; the “Solubility, Phosphate buffer pH 7” value is reported as “SS (SS indicates solubility ≥ 1mg/ml)”; the “Solubility, Phosphate buffer pH 7.5” value is reported as “SS (SS indicates solubility ≥ 1mg/ml)”.

On to `CC[C@H](C)[C@@H](C(=O)N[C@@H](CC(C)C)C(=O)N[C@@H](CO)C(=O)N[C@@H](CO)C(=O)N[C@H](C(=O)N[C@@H](CC(N)=O)C(=O)N[C@H](C(=O)NCC(=O)N[C@@H](CO)C(=O)N[C@@H](CC(N)=O)C(=O)N[C@H](C(=O)N1CCC[C@H]1C(N)=O)[C@@H](C)O)C(C)C)[C@@H](C)O)N(C)C(=O)CN(C)C(=O)[C@H](Cc1ccccc1)NC(=O)[C@H](CC(N)=O)NC(=O)[C@H](CC(N)=O)NC(=O)[C@H](CO)NC(=O)[C@H](CO)NC(=O)[C@H](Cc1c[nH]cn1)NC(=O)[C@H](CC(C)C)NC(=O)[C@H](Cc1ccccc1)NC(=O)[C@H](CCC(=O)O)NC(=O)[C@H](C)NC(=O)[C@H](CC(C)C)NC(=O)[C@H](CCCNC(=N)N)NC(=O)[C@H](CCC(N)=O)NC(=O)[C@@H](NC(=O)[C@H](C)NC(=O)[C@@H]1CSSC[C@H](NC(=O)[C@H](CCCNC(=N)N)NC(=O)CC[C@H](NC(=O)CCCCCCCCCCCCCCCCCCC(=O)O)C(=O)O)C(=O)N[C@@H](CC(N)=O)C(=O)N[C@@H]([C@@H](C)O)C(=O)N[C@@H](C)C(=O)N[C@@H]([C@@H](C)O)C(=O)N1)[C@@H](C)O` [Compound 40, [19CD]-isoGlu-RC()NTATC()ATQRLAEFLHSSNNF-Gly(Me)-Ile(Me)-LSSTNVGSNTP-NH2] ({C20 diacid-γGlu}-RCNTATCATQRLAEFLHSSNNF[Sar][NMeI]LSSTNVGSNTP-NH2; disulfide 2-7), for which the EC50 in data set [1] (cAMP induction in COS7 cells expressing hCTR2, average of a minimum of 3 determinations, read-out: hCTR2 EC50) amounted to 0.38 nM. For the same compound, in data set [2], the “Solubility, Acetate buffer pH 4” value was “SS (SS indicates solubility ≥ 1mg/ml)”; the “Solubility, Acetate buffer pH 5” value is reported as “SS (SS indicates solubility ≥ 1mg/ml)”; the “Solubility, Histidine buffer pH 6” value is “SS (SS indicates solubility ≥ 1mg/ml)”; the “Solubility, Histidine buffer pH 7” value is on record as “SS (SS indicates solubility ≥ 1mg/ml)”. Further, in data set [2], the “Solubility, Phosphate buffer pH 6” value was “SS (SS indicates solubility ≥ 1mg/ml)”; the “Solubility, Phosphate buffer pH 7” value is listed as “SS (SS indicates solubility ≥ 1mg/ml)”; the “Solubility, Phosphate buffer pH 7.5” value is reported as “SS (SS indicates solubility ≥ 1mg/ml)”.

The EC50 is the concentration giving half of the maximal effect.
